Reference: patent US20240294551A1 (AMGEN INC., priority 2022, published 2024)
Like-named read-outs stand apart in the source and are kept apart here.

How the values were obtained:
[1] = target: His-tagged KRAS G12D protein (Homo sapiens (Human), UniProt P01116, G12D); assay: KRAS G12D TR-FRET Assay; assay type: binding; conditions: read-out: KRAS G12D Binding IC50
How it was run: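 His-tagged KRAS G12D (diluted to 20 nM in pH 7.4 HEPES buffer with 10 mM MgCl2 and 10 μM GDP) was preincubated with titrated compound for 30 min at room temperature. Biotinylated KRPep-2d peptide (diluted to 20 nM) was then added for 1 h, and displacement was monitored by TR-FRET.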

[2] = target: GDP-bound KRAS protein (aa 1-169), containing both G12D and C118A amino acid substitutions (Homo sapiens (Human), UniProt P01116, C118A/G12D); assay: KRAS G12D Coupled Nucleotide Exchange Assay; assay type: biochemical; conditions: read-out: KRAS G12D Coupled Exchange IC50
GDP-bound KRAS protein (aa 1-169), containing both G12D and C118A amino acid substitutions, sequence (P01116 other isoform, or with tags, fused parts or gaps G12D/C118A): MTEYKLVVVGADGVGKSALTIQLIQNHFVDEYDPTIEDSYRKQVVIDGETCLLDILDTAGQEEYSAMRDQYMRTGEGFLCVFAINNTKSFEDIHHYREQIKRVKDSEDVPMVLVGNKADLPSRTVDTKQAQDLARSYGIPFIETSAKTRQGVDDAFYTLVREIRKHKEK

[3] = system: Phosphorylation of ERK1/2 in AsPC-1 cells; assay: Phospho-ERK1/2 MSD Assay; assay type: cell-based, human
How it was run: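 Read-out: MSD electrochemiluminescent detection of phosphorylated ERK1/2 in whole-cell lysates, fitted to a 4-parameter logistic curve for IC50. Prior to lysis, AsPC-1 cells (25,000 per well) received a 2 h compound dose-response at 37 °C.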

AsPC-1 cells = assay: AsPC-1 CTG Assay (CellTiter-Glo cell viability); assay type: cell-based, human; conditions: AsPC-1, 72 h, first value of the cell, read-out: G12D/C/V Cell Proliferation CTG (72 h) AsPC-1
How it was run: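 Human pancreatic AsPC-1 or colon SW620 cells in RPMI 1640 with 10% FBS, seeded overnight, then exposed to serially diluted compound for 72 h at 37 °C. CellTiter-Glo luminescence normalized to DMSO control; IC50 from a 4-parameter logistic model.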

MIA PaCa-2 cells = assay: MIA PaCa-2 CTG Assay (CellTiter-Glo cell viability); assay type: cell-based, human; conditions: Homo sapiens, second value of the cell
Experimental: MIA PaCa-2 CTG Assay Protocol
MIA PaCa-2 (human pancreatic carcinoma; ATCC CRL-1420) cells were cultured in RPMI 1640 medium containing 10% fetal bovine serum and 1× penicillin/streptomycin/L-glutamine. Cells were seeded in 384-well plates at a density of 1.67E+04 cells/mL and incubated at 37° C., 5% CO2, overnight. Serially-diluted compound or DMSO was added to the cells, and plates were incubated at 37° C., 5% CO2 for 72 h. Cell viability was measured using a CellTiter-Glo® Luminescent Cell Viability Assay kit (Promega) according to the manufacturer's protocol. The luminescence signal of treated samples was normalized to DMSO control, and data were analyzed using a 4-parameter logistic model to calculate IC50 values.

[4] = Homo sapiens, ASPC1, 2 h, read-out: 2 h p-ERK (AsPC-1 cells), IC50
[5] = Mia PaCa-2, 72 h, read-out: G12D/C/V Cell Proliferation CTG (72 h) Mia PaCa-2
[6] = 2 h, read-out: 2 h p-ERK (AsPC-1 cells), IC50

His-tagged KRAS G12D protein, sequence (P01116 other isoform, or with tags, fused parts or gaps G12D): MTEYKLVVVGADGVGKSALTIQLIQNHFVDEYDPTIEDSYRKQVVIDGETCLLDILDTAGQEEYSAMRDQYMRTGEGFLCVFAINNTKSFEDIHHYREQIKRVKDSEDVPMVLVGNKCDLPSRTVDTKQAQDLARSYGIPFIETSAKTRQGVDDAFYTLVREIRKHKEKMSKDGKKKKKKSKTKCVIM

Structure (SMILES): C[C@@]12CCCCN(C1)c1nc(OC[C@@]34CCCN3C[C@H](F)C4)nc3c(F)c(ncc13)-c1c(c(Cl)cc3[nH]ncc13)CCC[C@H](F)C(=O)N2 (mixture of isomers) [Example 281, (23RS,26R)-18-chloro-23,32-difluoro-4-(((2R,7aS)-2-fluorotetrahydro-1H-pyrrolo[1,2-a]pyrrol-7a(5H)-yl)methoxy)-26-methyl-1,3,5,9,14,15,25-heptaazahexacyclo[24.4.1.1~6,10~.0~2,7~.0~11,19~.0~12,16~]dotriaconta-2,4,6,8,10(32),11,13,16,18-nonaen-24-one]
- IC50 [1]: 5 nM
- IC50 [2]: 2 nM
- IC50 [3, 4]: 7.9 nM
- IC50 (AsPC-1 cells; Homo sapiens, ASPC1, 72 h): 104 nM
- IC50 (MIA PaCa-2 cells; [5]): 90 nM

Structure (SMILES): CO[C@@H]1C[C@@H](COc2nc3c4cnc(c(F)c4n2)-c2c(c(Cl)cc4[nH]ncc24)CCOC(=O)OC2CC4(CCCN3C4)C2)N(C)C1 (mixture of isomers) [Example 307]
- IC50 [1]: 4 nM
- IC50 [2]: 2 nM
- IC50 [3, 4]: 12 nM
- IC50 (AsPC-1 cells; Homo sapiens, ASPC1, 72 h): 134 nM
- IC50 (MIA PaCa-2 cells; [5]): 62 nM

Structure (SMILES): O=C1OC/C=C\c2c(Cl)cc3[nH]ncc3c2-c2ncc3c(nc(OC[C@@]45CCCN4C[C@H](F)C5)nc3c2F)N2CCC[C@H](C2)O1 (single isomer, unassigned) [Example 122]
- IC50 [1]: 5 nM
- IC50 [2]: 3 nM
- IC50 [3, 4]: 8 nM
- IC50 (AsPC-1 cells; Homo sapiens, ASPC1, 72 h): 250 nM
- IC50 (MIA PaCa-2 cells; [5]): 100 nM

Structure (SMILES): Cc1cc2[nH]ncc2c2c1CCCC(F)C(=O)N[C@@H]1CCCCN(C1)c1nc(OC[C@@]34CCCN3C[C@H](F)C4)nc3c(F)c-2ncc13 (single isomer, unassigned) [Example 160]
- IC50 [1]: 4 nM
- IC50 [2]: 3 nM
- IC50 [3, 6]: 71.8 nM
- IC50 (AsPC-1 cells; Homo sapiens, ASPC1, 72 h): 587 nM
- IC50 (MIA PaCa-2 cells; [5]): 420 nM

Structure (SMILES): Cc1cc2[nH]ncc2c2c1[C@H]1C[C@H]1CCOC[C@H]1CN(CCO1)c1nc(OC[C@@]34CCCN3C[C@H](F)C4)nc3c(F)c-2ncc13 (single isomer, unassigned) [Example 226]
- IC50 [1]: 7 nM
- IC50 [2]: 5 nM
- IC50 [3, 4]: 77.8 nM
- IC50 (AsPC-1 cells; Homo sapiens, ASPC1, 72 h): 412 nM
- IC50 (MIA PaCa-2 cells; [5]): 130 nM

Structure (SMILES): Fc1c2ncc3c(nc(OC[C@@]45CCCN4C[C@H](F)C5)nc13)N1CCO[C@]3(C1)C[C@@H](C3)OCCCCc1c(Cl)cc3[nH]ncc3c1-2 (single isomer, unassigned) [Example 261]
- IC50 [1]: 6 nM
- IC50 [2]: 5 nM
- IC50 [3, 4]: 40.2 nM
- IC50 (AsPC-1 cells; Homo sapiens, ASPC1, 72 h): 270 nM
- IC50 (MIA PaCa-2 cells; [5]): 28 nM

Structure (SMILES): O=C1CC/C=C\c2c(Cl)cc3[nH]ncc3c2-c2ncc3c(nc(OC[C@@]45CCCN4C[C@H](F)C5)nc3c2F)N2CCCC(C2)O1 (stereo in doubt) [Example 35, (11Z,17S)-9-Chloro-30-fluoro-24-(((2R,7aS)-2-fluorotetrahydro-1H-pyrrolo[1,2-a]pyrrol-7a(5H)-yl)methoxy)-16-oxa-5,6,21,23,25,29-hexaazahexacyclo[24.3.1.1˜17,21˜.0˜2,10˜.0˜3,7˜.0˜22,27˜]hentriaconta-1(30),2,4,7,9,11,22,24,26,28-decaen-15-one bis(2,2,2-trifluoroacetate)]
- IC50 [1]: 1 nM
- IC50 [2]: 1 nM
- IC50 [3, 4]: 19 nM
- IC50 (AsPC-1 cells; Homo sapiens, ASPC1): 277 nM
- IC50 (MIA PaCa-2 cells; [5]): 90 nM

Structure (SMILES): C[C@@]12CCCN(C1)c1nc(OC[C@@]34CCCN3C[C@H](F)C4)nc3c(F)c(ncc13)-c1cc(O)cc3cccc(c13)CCCC(=O)N2 [Example 3, (15R)-31-Fluoro-8-(((2R,7aS)-2-fluorotetrahydro-1H-pyrrolo[1,2-a]pyrrol-7a(5H)-yl)methoxy)-27-hydroxy-15-methyl-3,7,9,11,16-pentaazahexacyclo[19.7.1.1˜2,6˜.1˜11,15˜.0˜5,10˜.0˜25,29˜]hentriaconta-1(28),2(31),3,5,7,9,21,23,25(29),26-decaen-17-one bis(2,2,2-trifluoroacetate)]
- IC50 [1]: 1 nM
- IC50 [2]: 0.1 nM
- IC50 [3, 4]: 23 nM
- IC50 (AsPC-1 cells; Homo sapiens, ASPC1, 72 h): 285 nM
- IC50 (MIA PaCa-2 cells; [5]): 75 nM

Structure (SMILES): CN1C[C@H](F)C[C@H]1COc1nc2c3cnc(c(F)c3n1)-c1cc(O)cc3ccc(F)c(c13)CCCC(=O)N[C@]1(C)CCCN2C1 [Example 5, (15R)-22,31-Difluoro-8-(((2S,4R)-4-fluoro-1-methyl-2-pyrrolidinyl)methoxy)-27-hydroxy-15-methyl-3,7,9,11,16-pentaazahexacyclo[19.7.1.1˜2,6˜.1˜11,15˜.0˜5,10˜.0˜25,29˜]hentriaconta-1(28),2(31),3,5,7,9,21,23,25(29),26-decaen-17-one bis(2,2,2-trifluoroacetate)]
- IC50 [1]: 1 nM
- IC50 [2]: 1 nM
- IC50 [3, 4]: 23 nM
- IC50 (AsPC-1 cells; Homo sapiens, ASPC1, 72 h): 471 nM
- IC50 (MIA PaCa-2 cells; [5]): 62 nM

Structure (SMILES): Fc1c2ncc3c(nc(OC[C@@]45CCCN4C[C@H](F)C5)nc13)N1CCC[C@@H](CSCCCCc3c(Cl)cc4[nH]ncc4c3-2)C1 [Example 143]
- IC50 [3, 4]: 109 nM
- IC50 (AsPC-1 cells; Homo sapiens, ASPC1, 72 h): 980 nM
- IC50 (MIA PaCa-2 cells; [5]): 480 nM

Structure (SMILES): Cc1cc2[nH]ncc2c2c1CCCOC(=O)O[C@@H]1COCCN(C1)c1nc(OC[C@@]34CCCN3C[C@H](F)C4)nc3c(F)c-2ccc13 [Example 192, (26S)-32-fluoro-4-(((2R,7aS)-2-fluorotetrahydro-1H-pyrrolo[1,2-a]pyrrol-7a(5H)-yl)methoxy)-18-methyl-23,25,28-trioxa-1,3,5,14,15-pentaazahexacyclo[24.4.1.1~6,10~.0~2,7~.0~11,19~.0~12,16~]dotriaconta-2,4,6,8,10(32),11,13,16,18-nonaen-24-one]
- IC50 [3, 4]: 21.8 nM
- IC50 (AsPC-1 cells; Homo sapiens, ASPC1, 72 h): 375 nM
- IC50 (MIA PaCa-2 cells; [5]): 67 nM

Structure (SMILES): C[C@@]12COCCN(C1)c1nc(OC[C@@]34CCCN3C[C@H](F)C4)nc3c(F)c(ncc13)-c1cccc(Cl)c1CCCOC(=O)O2 [Example 200, (23S)-15-chloro-29-fluoro-4-(((2R,7aS)-2-fluorotetrahydro-1H-pyrrolo[1,2-a]pyrrol-7a(5H)-yl)methoxy)-23-methyl-20,22,25-trioxa-1,3,5,9-tetraazapentacyclo[21.4.1.1~6,10~.0~2,7~.0~11,16~]nonacosa-2,4,6,8,10(29),11,13,15-octaen-21-one]
- IC50 [1]: 10 nM
- IC50 [2]: 4 nM
- IC50 [3, 4]: 262 nM
- IC50 (MIA PaCa-2 cells; [5]): 320 nM

Structure (SMILES): Fc1c2ncc3c(nc(OC[C@@]45CCCN4C[C@H](F)C5)nc13)N1CCC[C@H](C1)c1coc(n1)CCCc1c(Cl)cc3[nH]ncc3c1-2 [Example 246, (18R)-9-chloro-31-fluoro-25-(((2R,7aS)-2-fluorotetrahydro-1H-pyrrolo[1,2-a]pyrrol-7a(5H)-yl)methoxy)-15-oxa-5,6,22,24,26,30,33-heptaazaheptacyclo[25.3.1.1~14,17~.1~18,22~.0~2,10~.0~3,7~.0~23,28~]tritriaconta-1(31),2,4,7,9,14(33),16,23,25,27,29-undecaene]
- IC50 [3, 6]: 10.1 nM
- IC50 (AsPC-1 cells): 112 nM
- IC50 (MIA PaCa-2 cells; [5]): 82 nM

Structure (SMILES): C[C@@]12COCCN(C1)c1nc(OC[C@@]34CCCN3C[C@H](F)C4)nc3c(F)c(ncc13)-c1cccc3ccc(F)c(c13)CCOC(=O)O2 [Example 304, (16S)-23,32-difluoro-8-(((2R,7aS)-2-fluorotetrahydro-1H-pyrrolo[1,2-a]pyrrol-7a(5H)-yl)methoxy)-16-methyl-14,17,19-trioxa-3,7,9,11-tetraazahexacyclo[20.7.1.1~2,6~.1~11,16~.0~5,10~.0~26,30~]dotriaconta-1(30),2(32),3,5,7,9,22,24,26,28-decaen-18-one]
- IC50 [1]: 15 nM
- IC50 [2]: 4 nM
- IC50 [3, 4]: 103 nM
- IC50 (MIA PaCa-2 cells; [5]): 380 nM

Structure (SMILES): Fc1c2ncc3c(nc(OC[C@@]45CCCN4C[C@H](F)C5)nc13)N1CCOC[C@H](C1)c1noc(n1)CCCc1c(Cl)cc3[nH]ncc3c1-2 [Example 381]
- IC50 ([3]; Homo sapiens, ASPC1, 2 h, read-out: 2 h p-ERK (AsPC-1 cells)): 10.4 nM
- IC50 (MIA PaCa-2 cells; MIA PaCa-2 cells (G12C), 72 h, read-out: G12D/C/V Cell Proliferation CTG (72 h) MIA PaCa-2): 12 nM
